The results in this text go back to US8178654B2, “Estrogen receptor intramolecular folding systems, estrogen receptor intramolecular folding sensors, methods of use thereof, methods of detecting ER ligands, and methods of detecting ER agonists and antagonists” (Stanford University, priority 2006, dated 2012).

Experiment [1] has as its target T1, hER281-549 (human estrogen receptor alpha ligand binding domain amino acids 281-549) (Homo sapiens, UniProt P03372, G400V).
T1 construct: expressed in transfected cells; host or cells: 293T (transient); also transfected MCF7 and MDA-MB231
T1 sequence (P03372 281-549 G400V): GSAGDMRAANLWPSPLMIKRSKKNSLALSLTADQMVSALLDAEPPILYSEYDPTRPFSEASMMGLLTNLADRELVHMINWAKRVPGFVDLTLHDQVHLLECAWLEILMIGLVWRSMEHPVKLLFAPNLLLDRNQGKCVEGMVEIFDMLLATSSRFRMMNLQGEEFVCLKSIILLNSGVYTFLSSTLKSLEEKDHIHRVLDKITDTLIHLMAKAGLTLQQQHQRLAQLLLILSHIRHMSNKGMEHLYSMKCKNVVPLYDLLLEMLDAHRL
In words: Ligand-induced intramolecular folding split RLUC complementation, N-RLUC-hER281-549-C-RLUC in transfected cells. The conditions noted are these: for ligand-induced RLUC complementation signal (in words): transfected cells, 1 μM ligand, 18 hours. It is filed as cell-based. On the procedure:
(§1) For transfection, 200 ng DNA/well were used in 12 well culture plates. Volumes of Lipofectamine were as recommended by the manufacturer. The co-transfection of 10 ng/well Fluc DNA served as control for normalizing transfection. The cells were assayed after 18 hours of incubation at 37° C. with 5% CO2. The luminometry assay for Renilla Luciferase activity was performed as per protocol published previously. In brief, the cells were lysed in 200 μl of 1× passive lysis buffer (Promega, Madison, Wis.) by shaking for 15 min at room temperature. The cell lysates were centrifuged for 5 min at 10,000 rpm at 4° C. Twenty μl of supernatants were assayed by adding 1 μg of substrate coelenterazine in 100 μl of 0.05M sodium phosphate buffer (pH 7.0) followed by photon counting in the luminometer (Turner Designs, model T 20/20, Sunnyvale, Calif.) for 10 s. The readings were normalized by measuring the protein concentration in the cell lysates and also by measuring the FLUC activity. Activity of RLUC was represented as normalized relative light units (RLU) per microgram of protein.
The cells were assayed for RLUC activity after 18 hours of incubation. The results were normalized as mentioned in the previous experiments.
The results were normalized as mentioned in the previous experiments.
(§2) The ligand agonists and antagonists specific intramolecular folding were studied in ER positive and negative cell lines. […] The cells exposed to solvent DMSO served as control. The same samples were analysed by Western blot for the detection of the transfected protein level using anti-RLUC antibody using the method mentioned above.

Another experiment concerns the target hERG521R (Homo sapiens, UniProt P03372, G400V/G521R). The conditions noted are these: mutant human ER. On the procedure:
as §1

The target in experiment [2] is T2, fusion protein N-RLUC-hER281-549-C-RLUC in 293T cells (Homo sapiens, UniProt P03372, G400V).
T2 construct: expressed in transfected cells; host or cells: 293T (transient)
T2 sequence (P03372 281-549 G400V): T1 sequence (P03372 281-549 G400V)
Nature of the experiment: Western blot of sensor fusion protein level in transfected 293T cells (anti-RLUC antibody). It is filed as cell-based. As to conditions: 1 μM ligand, 18 hours. The method, then: as §2
For orientation: Immunoblotting shows a protein as a band on a membrane.

Chain of hERG521R (P03372 281-595 G400V/G521R): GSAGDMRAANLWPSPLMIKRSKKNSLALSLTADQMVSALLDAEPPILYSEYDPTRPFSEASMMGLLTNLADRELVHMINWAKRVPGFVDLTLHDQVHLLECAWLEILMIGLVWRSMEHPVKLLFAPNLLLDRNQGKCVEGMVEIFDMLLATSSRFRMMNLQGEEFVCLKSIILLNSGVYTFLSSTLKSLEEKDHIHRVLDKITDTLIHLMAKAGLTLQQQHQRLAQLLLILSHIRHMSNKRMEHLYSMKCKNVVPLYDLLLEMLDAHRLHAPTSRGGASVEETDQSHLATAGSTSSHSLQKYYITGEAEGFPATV

Consider 4-hydroxytamoxifen, for which, in experiment [1], the “RLUC complementation at different time points (in words)” value is on record as “significant (P<0.0015) level of RLUC complementation”, the “complemented Renilla Luciferase activity relative to cells before exposed to ligand” value came to 80±15 times and the “concentration dependence of RLUC activity (in words)” value is listed as “increased RLUC activity”. For the same compound, at hERG521R, the “receptor mediated RLUC complementation” value is 3-5%.
For `N.N.[Cl][Pt][Cl]` [Cisplatinum], the “ligand-induced RLUC complementation signal (in words)” value in experiment [1] was “not significantly different from cells transfected and not exposed to any ligands”. Moreover, the “expressed fusion (sensor) protein level” value in experiment [2] is “significant reduction in the expressed fusion protein levels”.
`COc1cccc2c1C(=O)c1c(O)c3c(c(O)c1C2=O)C[C@@](O)(C(=O)CO)C[C@@H]3O[C@H]1C[C@H](N)[C@H](O)[C@H](C)O1` [Doxirubicin]: the “ligand-induced RLUC complementation signal (in words)” value in experiment [1] is “not significantly different from cells transfected and not exposed to any ligands”.
As for `O=C(O[C@@H]1Cc2c(O)cc(O)cc2O[C@@H]1c1cc(O)c(O)c(O)c1)c1cc(O)c(O)c(O)c1` [Epigallocatechin gallate], in experiment [1], the “ligand-induced RLUC complementation signal (in words)” value was “not significantly different from cells transfected and not exposed to any ligands”. Also, the “expressed fusion (sensor) protein level” value in experiment [2] is “significant reduction in the expressed fusion protein levels”.
In the case of `C[C@]12CC[C@@H]3c4ccc(O)cc4C[C@@H](CCCCCCCCC[S+]([O-])CCCC(F)(F)C(F)(F)F)[C@H]3[C@@H]1CC[C@@H]2O` (stereo partly shown) [ICI182,780], the “expressed fusion (sensor) protein level” value in experiment [2] was “no significant level of degradation”.
